# Measured values taken from EP0357061B1, “Angiogenesis inhibitory agent” (priority 1988, dated 1990).
# Like-named read-outs stand apart in the source and are kept apart here. Marks after values point to notes of the source that are not given here.
# Experiments:
# [1] = system: bFGF-induced angiogenesis; experiment: rat cornea micropocket method (angiogenesis inhibitory activity); format: in vivo, Sprague-Dawley rats; details: rats with angiogenesis inhibitory activity / rats tested, sample pellet 20 »g
# Description: The product compound (I) obtained in the examples given below were evaluated for angiogenesis inhibitory activity by the rat cornea micropocket method.
# Essentially the method of Gimbrone et al. [J. National Cancer Institute, 52, 413-419 (1974)] was followed. Thus, adult male Sprague-Dawley rats (11 to 16 weeks of age) were anesthetized with nembutal and locally anesthetized by instillation of xylocaine eyedrops onto the eyeball. The cornea was incised to a length of about 2 mm at about 2mm inside from the corneal circumference by means of an injection needle, and a sustained release pellet containing basic fibroblast growth factor (bFGF; bovine brain-derived, purified product; R & D) and a sustained release pellet containing the test sample were inserted side by side into the incision so that the bFGF pellet was located on the central side in the cornea. In the control group, the bFGF pellet and a sample-free pellet were inserted into the cornea. After 7 days and after 10 days, the cornea was observed under a stereoscopic microscope.
# The sustained release pellets were prepared in the following manner. An ethylene-vinyl acetate copolymer (Takeda Chemical Industries) was dissolved in dichloromethane to a concentration of 8%. A 3-»l portion of the solution was air-dried on a glass dish, an aqueous solution of bFGF (250 ng) was then placed thereon and air-dried and, finally 3 »l of the above ethylene-vinyl acetate copolymer solution was placed further thereon and air-dried to give a laminate consisting of two copolymer layers and a bFGF layer sandwiched therebetween. This sandwich sheet was made round into a bFGF pellet. The test sample pellets were prepared by dissolving each sample in ethanol in a concentration of 20 »g/2 »l, mixing the solution (2 »l) with 6 »l of an ethylene-vinyl acetate copolymer solution, air-drying the mixed solution on a glass dish and making the thus-obtained sheet round.
# [2] = system: mouse reticulum cell sarcoma (M 5076); experiment: Suppression of tumor formation in vivo (M 5076); design: species or system C57BL/6N mice; details: 30 mg/day subcutaneously, 10 injections over 12 days; tumor volume one day after the final injection
# Description: The tumor used in this assay was mouse reticulum cell sarcoma (M 5076), maintained by intraperitoneal transplantation into male C57BL/6N mice. The tumor cells in ascites were collected by centrifugation, and suspended in saline. The cell suspension (2 x 10⁶ cells/100 »l/mouse) was inoculated into right flanks of mice. Tumor-bearing mice were subcutaneously treated with the compound (I) (shown by Example Numbers) suspended in 5% arabic gum solution containing 1% of ethanol, for 12 days beginning one day after tumor inoculation (10 injections). The tumor growth was determined by measuring tumor size in two directions with calipers at intervals of a few days. The tumor volumes were calculated by the following formula. Tumor volume (mm³) = length x (width)² […]. [formula]
# [3] = system: Human umbilical vein endothelial cells (HUVE); experiment: Inhibition of human endothelial cell growth (MTT); format: cell-based; details: rbFGF 2 ng/ml, 5 day culture; for IC50: Homo sapiens, Endothelial cell, 120 h, read-out: (IC₅₀)
# Description: Human umbilical vein endothelial cells (HUVE) were isolated by perfusion of an umbilical vein with a trypsin-containing medium. HUVE were cultured in GIT medium (Diago Eiyou Kagaku, Co., Japan) supplemented with 2.5% fetal bovine serum and 2.0 ng/ml of recombinant human basic fibroblast growth factor (rbFGF, Biotechnology Research Laboratories, Takeda, Osaka, Japan) at 37°C under 5% CO₂ and 7% O₂. HUVE were plated on 96-well microtiter plates (Nunc, 1-67008) at the cell density of 2 x 10³/100 »l of medium. The following day, 100 »l of medium containing rbFGF (2 ng/ml at the final concentration) and each compound (I) (shown by Example Numbers) at various concentrations were added to each well. […] After 5 day culture, medium was removed, 100 »l of 1 mg/ml of MTT (3-(4,5-dimethyl-2-thiazolyl)- 2,5-diphenyl-2H-tetrazolium bromide) solution was added to wells, and microtiters were kept at 37°C for 4 hours. Then, 100 »l of 10% sodium dodecyl sulfate (SDS) solution was added to wells, microtiters were kept at 37° for 5-6 hours. To determine the effects on cell number, the optical density ([…]) of each well was measured using an optical densitometer. […]
# B16 Mouse Melanoma = format: in vivo
# Description: Using the B16 Mouse Melanoma model described in Folkman et al., Science, 221:719-725 (1983), the angiogenesis inhibitory activity of AGM-1470 was further evaluated. Treatment (Rx) usually started when tumors were approximately 70-100 mm³, approximately 9 to 10 days after inoculation. Tumors were matched for size before inclusion in treated and untreated groups. AGM-1470 was dissolved in isotonic solution by incubating with glass beads and vigorously shaking overnight at 4°C. This preparation was administered subcutaneously at 30 mg/kg every other day.
# Tumor growth is presented as a T/C ratio, as defined below. In essence, a ratio equal to "+ 1" means no inhibition, a ratio equal to "0" means complete suppression of growth, and a negative ratio indicates tumor regression. [formula]
# [4] = system: Chick Chorioallantoic Membranes; experiment: shell-less chorioallantoic membrane (CAM) assay; format: in vivo; details: after 48 - 72 hours
# Description: The shell-less chorioallantoic membrane (CAM) assay was carried out by the method of Folkman et al. (R.Crum. S.Szabo and J.Folkman; Science. 230. 1375 (1985)) as follows: three-day chick embryos were removed from their shells to petri dishes (Falcon 1005) under sterile hood and cultured for further 3 days.
# AGM-1470 was dissolved to a 0.45% methylcellulose aqueous solution and aliquots of 10 »l were pipetted onto Teflon rods. After the solution had dried, the methylcellulose disks (about 2 mm in diameter) containing the compound were implanted on the CAM of 6-day embryos.
# An avascular zone represents a region in which regression of pre-existing vessels has occured.
# Percent of avascular zones was calculated by counting the disks forming avascular zones per the total disks tested. In each group there were 12 to 16 embryos.
# [5] = system: Bovine capillary endothelial cells; experiment: Boyden chamber assay, capillary endothelial cell migration; format: cell-based; details: endothelial mitogen 200 »g/ml, 4 hours
# Description: The Boyden chamber assay was carried out using a modification of the method of Falk et al., J. Immunol. Meth., 33:239-247 (1980) as follows: Bovine capillary endothelial cells were plated at 1.5 x 10⁴ cells per well in serum-free DMEM (Dulbecco's Modified Eagle's Medium) on one side of nucleopore filters pre-coated with fibronectin (7.3 »g fibronectin/ml PBS). […] Cells were exposed to endothelial mitogen (Biomedical Technologies, Massachusetts) at 200 »g/ml and different concentrations of the AGM-1470 in serum-free DMEM for 4 hours at 37°C. At the end of this incubation, the number of cells that migrated through 8» pores in the filters was determined by counting cells with an ocular grid at 100 X in quadruplicate.
compound,measurement,setting,value
"CO[C@@H]1[C@H](OC(=O)c2ccccc2C(=O)O)CC[C@]2(CO2)[C@H]1[C@@]1(C)O[C@@H]1CC=C(C)C [Example 6, O-(2-Carboxybenzoyl)fumagillol]",Inhibition rate,[1]; judged after 10 days,6/7
O-Chloroacetylcarbamoyl-6'b-hydroxyfumagillol [Example 76],T/C (%),[2],29%
same,(IC₅₀),[3],0.12 ng/mL
"CO[C@@H]1[C@H](OC(=O)NN)CC[C@]2(CO2)[C@H]1[C@@]1(C)O[C@@H]1CC=C(C)C [Example 26, O-Carbazoylfumagillol]",Inhibition rate,[1]; judged after 10 days,6/6
"CO[C@@H]1[C@H](OC(=O)N2CCCCC2)CC[C@]2(CO2)[C@H]1[C@@]1(C)O[C@@H]1CC=C(C)C [Example 25, O-Piperidinocarbonylfumagillol]",Inhibition rate,[1]; judged after 10 days,6/8
"CO[C@@H]1[C@H](OCc2ccccc2)CC[C@]2(CO2)[C@H]1[C@@]1(C)O[C@@H]1CC=C(C)C [Example 17, O-Benzylfumagillol]",Inhibition rate,[1]; judged after 7 days,7/8*
"CO[C@@H]1[C@H](OC(=O)NC(=O)CCl)CC[C@]2(CO2)[C@H]1[C@@]1(C)O[C@@H]1CCC(C)C [Example 51, O-Chloroacetylcarbamoyldihydrofumagillol]",T/C (%),[2],22%
same,Inhibition rate,[1]; judged after 10 days,7/14
same,IC50,[3],0.14 ng/mL
"C=CC(=O)NC(=O)O[C@@H]1CC[C@]2(CO2)[C@@H]([C@@]2(C)O[C@@H]2CC=C(C)C)[C@@H]1OC [Example 58, O-Acryloylcarbamoylfumagillol]",Inhibition rate,[1]; judged after 10 days,6/6
"CO[C@@H]1[C@H](OC(=O)Nc2ccc(F)cc2F)CC[C@]2(CO2)[C@H]1[C@@]1(C)O[C@@H]1CC=C(C)C [Example 37, O-(2,4-Difluorophenylcarbamoyl)fumagillol]",Inhibition rate,[1]; judged after 10 days,11/11
"CO[C@@H]1[C@H](OC(=O)NC(=O)CSC)CC[C@]2(CO2)[C@H]1[C@@]1(C)O[C@@H]1CC=C(C)C [Example 65, O-(Methylthioacetylcarbamoyl)fumagillol]",Inhibition rate,[1]; judged after 10 days,8/8
"CO[C@@H]1[C@H](OC(=O)NC(=O)CCl)CC[C@]2(CO2)[C@H]1[C@@]1(C)O[C@@H]1CC=C(C)C [Example 8, O-Chloroacetylcarbamoylfumagillol]",treated remained alive past day 55,B16 Mouse Melanoma; 30 mg/kg subcutaneously every other day,Day 37 100% untreated dead 50% AGM-1470 treated dead (50% of treated remained alive past day 55)
same,AGM-1470 treated dead,"B16 Mouse Melanoma; Day 37 (100% untreated dead), 30 mg/kg subcutaneously every other day",Day 37 100% untreated dead 50% AGM-1470 treated dead (50% of treated remained alive past day 55)
same,toxicity,"B16 Mouse Melanoma; mouse, in vivo",little or no toxicity
same,T/C,"B16 Mouse Melanoma; time of Rx 2 wk, 30 mg/kg subcutaneously every other day",0.47
same,T/C,"B16 Mouse Melanoma; time of Rx 3 wk, 30 mg/kg subcutaneously every other day",0.20
same,T/C (%),[2],14%
same,percent of avascular zones,[4]; dose 1 »g/10 »l methylcellulose,33
same,percent of avascular zones,[4]; dose 10 »g/10 »l methylcellulose,62
same,percent of avascular zones,[4]; dose 25 »g/10 »l methylcellulose,100
same,IC50,"[5]; Bos taurus, Endothelial cell, read-out: Half maximal inhibition of endothelial mitogen-induced migration",~0.1 ng/mL
same,inhibition of cell migration,[5]; dose of 100 »g/ml,completely inhibited
same,"Significant inhibition of migration, doses as low as",[5],10 femptograms/ml
same,Inhibition rate,[1]; judged after 7 days,6/6*
same,IC50,[3],0.01 ng/mL
"CO[C@@H]1[C@H](OC(=O)NC(=O)c2ccccc2)CC[C@]2(CO2)[C@H]1[C@@]1(C)O[C@@H]1CC=C(C)C [Example 32, O-Benzoylcarbamoylfumagillol]",Inhibition rate,[1]; judged after 10 days,9/12
"CO[C@@H]1[C@H](OC(=O)N(CCN(C)C)C(C)=O)CC[C@]2(CO2)[C@H]1[C@@]1(C)O[C@@H]1CC=C(C)C [Example 57, O-[N-Acetyl-(2-dimethylaminoethylcarbamoyl)]fumagillol]",Inhibition rate,[1]; judged after 10 days,6/6
"CO[C@@H]1[C@H](OC(=O)COCC(=O)O)CC[C@]2(CO2)[C@H]1[C@@]1(C)O[C@@H]1CC=C(C)C [Example 5, O-Carboxymethoxyacetylfumagillol]",Inhibition rate,[1]; judged after 7 days,8/8*
"COC1C(OC(=O)NC(=O)CSc2cc[n+](C)cc2)CCC2(CO2)C1C1(C)OC1CC=C(C)C (stereo not drawn) [Example 69, O-[(N-Methylpyridin-4-ylium)thioacetylcarbamoyl]fumagillol iodide]",Inhibition rate,[1]; judged after 10 days,6/6
